# Assay results as given in patent US20220153746A1, “NITROGEN OXIDE-DONATING PDE-5 AND/OR PDE-6 INHIBITOR COMPOUNDS, AND USES THEREOF” (ILDONG PHARMACEUTICAL CO., LTD., priority 2020, published 2022).
# Where two headings read alike, the source gives them in different places.
# Assay: PK Phase (Group 2): plasma concentrations and pharmacokinetics of Compound 18 and its metabolite Compound 4 after once daily ocular instillation of Compound 18 nanosuspension for 7 days
# Format: in vivo, New Zealand white rabbits
# Text: This example illustrates the procedures and results for the levels of Compound 18 and its metabolite Compound 4 in plasma and ocular tissues of normotensive rabbits following ocular instillation of Compound 18 once daily for 7 consecutive days.
# Twenty five (25) male New Zealand white rabbits were divided into 5 groups of varying amounts of animals per group.
# The Test article, Compound 18 was formulated as a 2% nanosuspension in DI water containing 0.2% PS80 (polyoxyethylenesorbitan, monooleate (Tween 80)) and 0.4% HPMC (hydroxypropylmethylcellulose) at pH 6.77. Referred to herein as “Compound 18 nanosuspension.”
# The study consisted of three groups (Groups 1-3) of 19 male rabbits (NZW) that underwent once daily morning ocular installation (1 eyedrop) for 7 consecutive days (Day 0-6). Groups 4-5 each consisted of 3 male rabbits (NZW) that were not dosed.
# Blood samples (1 mL) were collected from the jugular vein at the intervals set out below for each group. The samples were then inverted several times following collection and held on wet ice until centrifuged. Samples were centrifuged within 60 minutes of collection under refrigeration (set at 5° C. for 10 minutes at 2000 g. […]
# Plasma and tissue samples from treated animals (Groups 1-3) were analyzed for Compound 18 and its metabolite Compound 4 concentrations by LC-MS/MS.
# Pharmacokinetic analysis was conducted using WinNonlin Version 6.2.1 (Pharsight, Mountain View, Calif.), operating as a validated software system. Noncompartmental analysis was conducted using the extravascular administration model for ocular instillation dosing.
# The peak plasma concentration, time to achieve peak plasma concentration, half-life, and area under the plasma concentration-time curve (Cmax, Tmax, T1/2, and AUC) were calculated from the PK phase individual animal plasma concentrations for each sampling time/dose group for Compound 18 and its metabolite Compound 4.
# BA Assay: Quantitation Range 0.05 to 100 ng/mL for Compound 18, 0.15 to 100 ng/mL for Compound 4.
# Plasma calibration standards (PLSTD-A) with Compound 18 concentrations ranging from 0.0500 to 100 ng/mL were prepared by spiking control rabbit plasma with appropriate calibration curve spiking solutions (SS-A). PLQC-A samples with concentrations of 0.150, 5.00, 50.0, and 80.0 ng/mL were prepared by spiking control rabbit plasma with appropriate SS-A-QC spiking solutions.
# Plasma calibration standards (PLSTD-B) with Compound 4 concentrations ranging from 0.150 to 100 ng/mL were prepared by spiking control rabbit plasma with appropriate calibration curve spiking solutions (SS-B). PLQC-B samples with concentrations of 0.450, 5.00, 50.0, and 80.0 ng/mL were prepared by spiking control rabbit plasma with appropriate SS-B-QC spiking solutions. PLQC-B-Dil samples at 800 ng/mL were prepared by spiking control rabbit plasma with the SS-B-QC-Dil spiking solution at 16,000 ng/mL, and then diluted 20× with control rabbit plasma prior to extraction.
# 1. Thaw plasma standards, plasma QC samples, ocular tissue QC samples, incurred plasma samples and ocular tissue samples (AH/VH) (if applicable) on wet ice. Control plasma can be thawed in tepid water. Vortex before taking aliquots.
# 2. Pipet 50 μL of water for Reagent Blank, 50 μL of control plasma for Double Blank and Blank, 50 μL of pre-spiked plasma for Standards and QC samples, 50 μL of incurred plasma samples (if applicable) into a 96 well plate.
# 5. Add 200 μL of working internal standard (WIS) solution to all remaining samples.
# 6. Seal the plate and vortex for approximately 5 minutes. Centrifuge the plate at 3500 rpm for 10 minutes at ˜4° C.
# 7. Transfer ˜200 μL of each sample supernatant into the appropriate wells of a 96 well plate. Submit for LC MS/MS analysis.
# A total of 25 rabbits were used for this study, including 19 treated rabbits and 6 control rabbits. […]
structure (smiles),measurement,setting,value
"CCCc1nn(C)c2c(=O)[nH]c(-c3cc(S(=O)(=O)N4CC(CCCO[N+](=O)[O-])C4)ccc3OCC)nc12 [Compound 18, 3-(1-((4-ethoxy-3-(1-methyl-7-oxo-3-propyl-6,7-dihydro-1H-pyrazolo[4,3-d]pyrimidin-5-yl)phenyl)sulfonyl)azetidin-3-yl)propyl nitrate]",Day 7 Compound 18 Plasma Concentration,"0.5 h, animal 207665",BQL (BQL = Below lower limit of quantitation (0.0500 ng/mL for Compound 18)
same,Day 1 Compound 18 Plasma Concentration,"1 h, animal 207664",BQL^a (BQL = Below lower limit of quantitation (0.0500 ng/mL for Compound 18)
same,Day 1 Compound 18 Plasma Concentration,"1 h, animal 207665",BQL (BQL = Below lower limit of quantitation (0.0500 ng/mL for Compound 18)
same,Day 7 Compound 18 Plasma Concentration,"1 h, animal 207665",BQL (BQL = Below lower limit of quantitation (0.0500 ng/mL for Compound 18)
same,Day 1 Compound 18 Plasma Concentration,"2 h, animal 207664",BQL (BQL = Below lower limit of quantitation (0.0500 ng/mL for Compound 18)
same,Day 1 Compound 18 Plasma Concentration,"2 h, animal 207665",BQL (BQL = Below lower limit of quantitation (0.0500 ng/mL for Compound 18)
same,Day 7 Compound 18 Plasma Concentration,"2 h, animal 207665",BQL (BQL = Below lower limit of quantitation (0.0500 ng/mL for Compound 18)
same,Day 1 Compound 18 Plasma Concentration,"2 h, animal 207666",BQL (BQL = Below lower limit of quantitation (0.0500 ng/mL for Compound 18)
same,Day 7 Compound 18 Plasma Concentration,"2 h, animal 207667",BQL (BQL = Below lower limit of quantitation (0.0500 ng/mL for Compound 18)
same,Day 1 Compound 18 Plasma Concentration,"4 h, animal 207664",BQL (BQL = Below lower limit of quantitation (0.0500 ng/mL for Compound 18)
same,Day 7 Compound 18 Plasma Concentration,"4 h, animal 207664",BQL (BQL = Below lower limit of quantitation (0.0500 ng/mL for Compound 18)
same,Day 1 Compound 18 Plasma Concentration,"4 h, animal 207665",BQL (BQL = Below lower limit of quantitation (0.0500 ng/mL for Compound 18)
same,Day 7 Compound 18 Plasma Concentration,"4 h, animal 207665",BQL (BQL = Below lower limit of quantitation (0.0500 ng/mL for Compound 18)
same,Day 1 Compound 18 Plasma Concentration,"4 h, animal 207667",BQL (BQL = Below lower limit of quantitation (0.0500 ng/mL for Compound 18)
same,Day 7 Compound 18 Plasma Concentration,"4 h, animal 207667",BQL (BQL = Below lower limit of quantitation (0.0500 ng/mL for Compound 18)
same,Day 1 Compound 18 Plasma Concentration,"8 h, animal 207664",BQL (BQL = Below lower limit of quantitation (0.0500 ng/mL for Compound 18)
same,Day 7 Compound 18 Plasma Concentration,"8 h, animal 207664",BQL (BQL = Below lower limit of quantitation (0.0500 ng/mL for Compound 18)
same,Day 1 Compound 18 Plasma Concentration,"8 h, animal 207665",BQL (BQL = Below lower limit of quantitation (0.0500 ng/mL for Compound 18)
same,Day 1 Compound 18 Plasma Concentration,"8 h, animal 207666",BQL (BQL = Below lower limit of quantitation (0.0500 ng/mL for Compound 18)
same,Day 1 Compound 18 Plasma Concentration,"8 h, animal 207667",BQL (BQL = Below lower limit of quantitation (0.0500 ng/mL for Compound 18)
same,Day 7 Compound 18 Plasma Concentration,"8 h, animal 207667",BQL (BQL = Below lower limit of quantitation (0.0500 ng/mL for Compound 18)
same,Day 1 Compound 18 Plasma Concentration,"24 h, animal 207664",BQL (BQL = Below lower limit of quantitation (0.0500 ng/mL for Compound 18)
same,Day 7 Compound 18 Plasma Concentration,"24 h, animal 207664",BQL (BQL = Below lower limit of quantitation (0.0500 ng/mL for Compound 18)
same,Day 1 Compound 18 Plasma Concentration,"24 h, animal 207665",BQL (BQL = Below lower limit of quantitation (0.0500 ng/mL for Compound 18)
same,Day 7 Compound 18 Plasma Concentration,"24 h, animal 207665",BQL (BQL = Below lower limit of quantitation (0.0500 ng/mL for Compound 18)
same,Day 1 Compound 18 Plasma Concentration,"24 h, animal 207667",BQL (BQL = Below lower limit of quantitation (0.0500 ng/mL for Compound 18)
same,In-life observations,"Groups 1-3, Compound 18 nanosuspension 1 drop/eye/day for 7 days, except animal #207664 discolored skin and rapid respiratory rate on Day 7",normal following dosing
same,concentration at 0.5 h,"male, New Zealand white, rabbit, plasma, other: ocular instillation (eye drop), 0.821 mg/kg/day, 0.5 h, Mean of 4 animals, BQL set to 0, read-out: Day 7 Compound 18 Plasma Concentration",0.0811 ng/mL
same,concentration at 0.5 h,"male, New Zealand white, rabbit, plasma, other: ocular instillation (eye drop), 0.821 mg/kg/day, 0.5 h, animal 207664, read-out: Day 7 Compound 18 Plasma Concentration",0.0978 ng/mL
same,concentration at 0.5 h,"male, New Zealand white, rabbit, plasma, other: ocular instillation (eye drop), 0.821 mg/kg/day, 0.5 h, animal 207666, read-out: Day 7 Compound 18 Plasma Concentration",0.163 ng/mL
same,concentration at 0.5 h,"male, New Zealand white, rabbit, plasma, other: ocular instillation (eye drop), 0.821 mg/kg/day, 0.5 h, animal 207667, read-out: Day 7 Compound 18 Plasma Concentration",0.0634 ng/mL
same,concentration at 1 h,"male, New Zealand white, rabbit, plasma, other: ocular instillation (eye drop), 0.821 mg/kg/day, 1 h, Mean of 4 animals, BQL set to 0, read-out: Day 7 Compound 18 Plasma Concentration",0.15 ng/mL
same,concentration at 1 h,"male, New Zealand white, rabbit, plasma, other: ocular instillation (eye drop), 0.821 mg/kg/day, 1 h, animal 207664, read-out: Day 7 Compound 18 Plasma Concentration",0.306 ng/mL
same,concentration at 1 h,"male, New Zealand white, rabbit, plasma, other: ocular instillation (eye drop), 0.821 mg/kg/day, 1 h, animal 207666, read-out: Day 7 Compound 18 Plasma Concentration",0.131 ng/mL
same,concentration at 1 h,"male, New Zealand white, rabbit, plasma, other: ocular instillation (eye drop), 0.821 mg/kg/day, 1 h, animal 207667, read-out: Day 7 Compound 18 Plasma Concentration",0.161 ng/mL
same,concentration at 2 h,"male, New Zealand white, rabbit, plasma, other: ocular instillation (eye drop), 0.821 mg/kg/day, 2 h, Mean of 4 animals, BQL set to 0, read-out: Day 1 Compound 18 Plasma Concentration",0.0208 ng/mL
same,concentration at 2 h,"male, New Zealand white, rabbit, plasma, other: ocular instillation (eye drop), 0.821 mg/kg/day, 2 h, Mean of 4 animals, BQL set to 0, read-out: Day 7 Compound 18 Plasma Concentration",0.0657 ng/mL
same,concentration at 2 h,"male, New Zealand white, rabbit, plasma, other: ocular instillation (eye drop), 0.821 mg/kg/day, 2 h, animal 207664, read-out: Day 7 Compound 18 Plasma Concentration",0.188 ng/mL
same,concentration at 2 h,"male, New Zealand white, rabbit, plasma, other: ocular instillation (eye drop), 0.821 mg/kg/day, 2 h, animal 207666, read-out: Day 7 Compound 18 Plasma Concentration",0.0747 ng/mL
same,concentration at 2 h,"male, New Zealand white, rabbit, plasma, other: ocular instillation (eye drop), 0.821 mg/kg/day, 2 h, animal 207667, read-out: Day 1 Compound 18 Plasma Concentration",0.083 ng/mL
same,concentration at 4 h,"male, New Zealand white, rabbit, plasma, other: ocular instillation (eye drop), 0.821 mg/kg/day, 4 h, Mean of 4 animals, BQL set to 0, read-out: Day 1 Compound 18 Plasma Concentration",0.0164 ng/mL
same,concentration at 4 h,"male, New Zealand white, rabbit, plasma, other: ocular instillation (eye drop), 0.821 mg/kg/day, 4 h, Mean of 4 animals, BQL set to 0, read-out: Day 7 Compound 18 Plasma Concentration",0.017 ng/mL
same,concentration at 4 h,"male, New Zealand white, rabbit, plasma, other: ocular instillation (eye drop), 0.821 mg/kg/day, 4 h, animal 207666, read-out: Day 1 Compound 18 Plasma Concentration",0.0655 ng/mL
same,concentration at 4 h,"male, New Zealand white, rabbit, plasma, other: ocular instillation (eye drop), 0.821 mg/kg/day, 4 h, animal 207666, read-out: Day 7 Compound 18 Plasma Concentration",0.0678 ng/mL
same,concentration at 8 h,"male, New Zealand white, rabbit, plasma, other: ocular instillation (eye drop), 0.821 mg/kg/day, 8 h, Mean of 4 animals, BQL set to 0, read-out: Day 1 Compound 18 Plasma Concentration",0 ng/mL
